Reference: ChEMBL document CHEMBL4177573 (Bioorg Med Chem, 2017)
Square brackets hold non-standard residues; d marks the D form. Peptide text beside a SMILES is read from it. 4Pal = N[C@@H](Cc1ccncc1)C(=O)O; Cha = N[C@@H](CC1CCCCC1)C(=O)O; Aib = CC(C)(N)C(=O)O

What was measured:
[1] = molecular target: T1, Neuropeptide Y receptor type 2 (Homo sapiens, UniProt P49146); test: Agonist activity at human neuropeptide Y2 receptor expressed in CHO cell membranes assessed as stimulation of [35S]GTPgammaS binding incubated for 120 mins by liquid scintillation counting method; type: functional
T1 sequence (P49146 whole entry): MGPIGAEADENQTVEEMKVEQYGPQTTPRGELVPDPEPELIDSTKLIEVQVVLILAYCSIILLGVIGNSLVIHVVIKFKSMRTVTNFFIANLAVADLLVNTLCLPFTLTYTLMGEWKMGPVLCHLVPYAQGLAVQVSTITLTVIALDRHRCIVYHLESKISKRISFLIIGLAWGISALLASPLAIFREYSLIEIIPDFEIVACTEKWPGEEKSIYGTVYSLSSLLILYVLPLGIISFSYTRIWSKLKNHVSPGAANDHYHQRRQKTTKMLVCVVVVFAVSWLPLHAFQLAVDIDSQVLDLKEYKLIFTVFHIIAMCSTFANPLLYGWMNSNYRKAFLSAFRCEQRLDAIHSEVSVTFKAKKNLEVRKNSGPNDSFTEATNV

[2] = molecular target: T1, Neuropeptide Y receptor type 2; test: Displacement of [125I]-PYY from human neuropeptide Y2 receptor expressed in CHO cell membranes incubated for 60 mins by TopCount based method
[3] = tested on: Mus musculus; test: Anorectic activity in C57BL/6J mouse assessed as inhibition of food intake at 0.03 mg/kg/day, sc for 3 days dosed as continuous administration by infusion using osmotic pump; type: functional; conditions: 72 h
[4] = tested on: Mus musculus; test: Anorectic activity in C57BL/6J mouse assessed as inhibition of food intake at 0.1 mg/kg/day, sc for 3 days dosed as continuous administration by infusion using osmotic pump; type: functional; conditions: 72 h
[5] = tested on: Mus musculus; test: Anorectic activity in C57BL/6J mouse assessed as inhibition of food intake at 0.3 mg/kg/day, sc dosed as […] and measured after 12 hrs; type: functional
[6] = tested on: Mus musculus; test: Anorectic activity in C57BL/6J mouse assessed as inhibition of food intake at 0.3 mg/kg/day, sc dosed as […] and measured after 24 hrs; type: functional

SMILES	EC50 [1] [nM]	IC50 [2] [nM]	inhibition in vivo at 0.03 mg/kg/day [3] [%]	inhibition in vivo at 0.1 mg/kg/day [4] [%]	inhibition in vivo at 0.3 mg/kg/day [5] [%]	inhibition in vivo at 0.3 mg/kg/day [6] [%]
CC[C@@](C)(NC(=O)[C@H](CC(C)C)NC(=O)[C@H](CC(N)=O)NC(=O)[C@H](CC1CCCCC1)NC(=O)[C@H](CC1CCCCC1)NC(=O)[C@H](Cc1cnc[nH]1)NC(=O)[C@H](CCCNC(=N)N)NC(=O)[C@H]1CCCN1C(=O)[C@H](CO)NC(C)=O)C(=O)N[C@H](C(=O)N[C@@H](CCCNC(=N)N)C(=O)N[C@@H](CCC(N)=O)C(=O)N[C@@H](CCCNC(=N)N)C(=O)N[C@@H](CC1CCCCC1)C(N)=O)[C@@H](C)O	0.17	0.67	–	–	–	–
CC[C@](C)(NC(=O)[C@H]1C[C@H](O)CN1C(=O)[C@H](CO)NC(C)=O)C(=O)N[C@@H](Cc1ccncc1)C(=O)N[C@@H](CC1CCCCC1)C(=O)NC(C)(C)C(=O)N[C@@H](CC(N)=O)C(=O)N[C@@H](CCCCN)C(=O)NC(C)(C)C(=O)N[C@H](C(=O)N[C@@H](CCCNC(=N)N)C(=O)N[C@@H](CCC(N)=O)C(=O)N[C@@H](CCCNC(=N)N)C(=O)N[C@@H](CC1CCCCC1)C(N)=O)[C@@H](C)O	0.21	0.78	45	–	–	–
CC[C@](C)(NC(=O)[C@H]1C[C@H](O)CN1C(=O)[C@H](CO)NC(=O)c1c[nH]cn1)C(=O)N[C@@H](Cc1ccncc1)C(=O)N[C@@H](CC1CCCCC1)C(=O)NC(C)(C)C(=O)N[C@@H](CC(N)=O)C(=O)N[C@@H](CCCCN)C(=O)NC(C)(C)C(=O)N[C@H](C(=O)N[C@@H](CCCNC(=N)N)C(=O)N[C@@H](CCC(N)=O)C(=O)N[C@@H](CCCNC(=N)N)C(=O)N[C@@H](CC1CCCCC1)C(N)=O)[C@@H](C)O	0.17	0.91	–	–	–	–
CC[C@@](C)(NC(=O)[C@H](CO)NC(C)=O)C(=O)N[C@@H](CCCNC(=N)N)C(=O)N[C@@H](Cc1ccncc1)C(=O)N[C@@H](CC1CCCCC1)C(=O)NC(C)(C)C(=O)N[C@@H](CC(N)=O)C(=O)N[C@@H](CCCCN)C(=O)NC(C)(C)C(=O)N[C@H](C(=O)N[C@@H](CCCNC(=N)N)C(=O)N[C@@H](CCC(N)=O)C(=O)N[C@@H](CCCNC(=N)N)C(=O)N[C@@H](CC1CCCCC1)C(N)=O)[C@@H](C)O	0.11	0.3	25	64	–	–
CC[C@](C)(NC(=O)[C@H]1C[C@H](O)CN1C(=O)[C@H](CO)NC(C)=O)C(=O)N[C@@H](Cc1ccncc1)C(=O)N[C@@H](CC1CCCCC1)C(=O)N[C@@H](CC(C)(C)C)C(=O)N[C@@H](CC(N)=O)C(=O)N[C@@H](CCCCN)C(=O)NC(C)(C)C(=O)N[C@H](C(=O)N[C@@H](CCCNC(=N)N)C(=O)N[C@@H](CCC(N)=O)C(=O)N[C@@H](CCCNC(=N)N)C(=O)N[C@@H](CC1CCCCC1)C(N)=O)[C@@H](C)O	0.13	0.58	27	–	4	8
CC(=O)N[C@@H](CO)C(=O)NC(C)(C)C(=O)N[C@@H](CCCNC(=N)N)C(=O)N[C@@H](Cc1ccncc1)C(=O)N[C@@H](CC1CCCCC1)C(=O)NC(C)(C)C(=O)N[C@@H](CC(N)=O)C(=O)N[C@@H](CCCCN)C(=O)NC(C)(C)C(=O)N[C@H](C(=O)N[C@@H](CCCNC(=N)N)C(=O)N[C@@H](CCC(N)=O)C(=O)N[C@@H](CCCNC(=N)N)C(=O)N[C@@H](CC1CCCCC1)C(N)=O)[C@@H](C)O (Ac-S[Aib]R[4Pal][Cha][Aib]NK[Aib]TRQR[Cha]-NH2)	0.13	0.41	36	95	–	–
CC[C@](C)(NC(=O)[C@H](CC1CCCCC1)NC(=O)[C@H](Cc1ccncc1)NC(=O)[C@](C)(CC)NC(=O)[C@H]1C[C@H](O)CN1C(=O)[C@H](CO)NC(=O)c1c[nH]cn1)C(=O)N[C@@H](CC(N)=O)C(=O)N[C@@H](CCCCN)C(=O)NC(C)(C)C(=O)N[C@H](C(=O)N[C@@H](CCCNC(=N)N)C(=O)N[C@@H](CCC(N)=O)C(=O)N[C@@H](CCCNC(=N)N)C(=O)N[C@@H](CC1CCCCC1)C(N)=O)[C@@H](C)O	0.13	0.44	49	–	–	–
CC[C@](C)(NC(=O)[C@H](CC1CCCCC1)NC(=O)[C@H](Cc1ccncc1)NC(=O)[C@](C)(CC)NC(=O)[C@H]1CCCN1C(=O)[C@H](CO)NC(C)=O)C(=O)N[C@@H](CC(N)=O)C(=O)N[C@@H](CCCCN)C(=O)NC(C)(C)C(=O)N[C@H](C(=O)N[C@@H](CCCNC(=N)N)C(=O)N[C@@H](CCC(N)=O)C(=O)N[C@@H](CCCNC(=N)N)C(=O)N[C@@H](CC1CCCCC1)C(N)=O)[C@@H](C)O	0.16	0.57	36	–	23	16
CC(=O)N[C@@H](CO)C(=O)N1CCC[C@@H]1C(=O)NC(C)(C)C(=O)N[C@@H](Cc1ccncc1)C(=O)N[C@@H](CC1CCCCC1)C(=O)NC(C)(C)C(=O)N[C@@H](CC(N)=O)C(=O)N[C@@H](CCCCN)C(=O)NC(C)(C)C(=O)N[C@H](C(=O)N[C@@H](CCCNC(=N)N)C(=O)N[C@@H](CCC(N)=O)C(=O)N[C@@H](CCCNC(=N)N)C(=O)N[C@@H](CC1CCCCC1)C(N)=O)[C@@H](C)O	0.21	4.5	–	50	–	–
CC(C)C[C@H](NC(=O)[C@H](CC(N)=O)NC(=O)[C@H](CC1CCCCC1)NC(=O)[C@H](CC1CCCCC1)NC(=O)[C@H](Cc1cnc[nH]1)NC(=O)[C@H](CCCNC(=N)N)NC(=O)[C@H]1CCCN1C(=O)[C@H](CO)NC(=O)c1c[nH]cn1)C(=O)NC(C)(C)C(=O)N[C@H](C(=O)N[C@@H](CCCNC(=N)N)C(=O)N[C@@H](CCC(N)=O)C(=O)N[C@@H](CCCNC(=N)N)C(=O)N[C@@H](CC1CCCCC1)C(N)=O)[C@@H](C)O	0.18	0.51	–	–	–	–
CC[C@](C)(NC(=O)[C@H](CO)NC(C)=O)C(=O)N[C@@H](CCCNC(=N)N)C(=O)N[C@@H](Cc1cnc[nH]1)C(=O)N[C@@H](CC1CCCCC1)C(=O)N[C@@H](CC1CCCCC1)C(=O)N[C@@H](CC(N)=O)C(=O)N[C@@H](CC(C)C)C(=O)NC(C)(C)C(=O)N[C@H](C(=O)N[C@@H](CCCNC(=N)N)C(=O)N[C@@H](CCC(N)=O)C(=O)N[C@@H](CCCNC(=N)N)C(=O)N[C@@H](CC1CCCCC1)C(N)=O)[C@@H](C)O	0.35	1.8	–	–	–	–
CC[C@@](C)(NC(=O)[C@H](CO)NC(C)=O)C(=O)N[C@@H](CCCNC(=N)N)C(=O)N[C@@H](Cc1cnc[nH]1)C(=O)N[C@@H](CC1CCCCC1)C(=O)N[C@@H](CC1CCCCC1)C(=O)N[C@@H](CC(N)=O)C(=O)N[C@@H](CC(C)C)C(=O)NC(C)(C)C(=O)N[C@H](C(=O)N[C@@H](CCCNC(=N)N)C(=O)N[C@@H](CCC(N)=O)C(=O)N[C@@H](CCCNC(=N)N)C(=O)N[C@@H](CC1CCCCC1)C(N)=O)[C@@H](C)O	0.28	2.4	–	–	–	–
CC[C@@](C)(NC(=O)[C@H](CC1CCCCC1)NC(=O)[C@H](Cc1cnc[nH]1)NC(=O)[C@H](CCCNC(=N)N)NC(=O)[C@H]1CCCN1C(=O)[C@H](CO)NC(C)=O)C(=O)N[C@@H](CC(N)=O)C(=O)N[C@@H](CC(C)C)C(=O)NC(C)(C)C(=O)N[C@H](C(=O)N[C@@H](CCCNC(=N)N)C(=O)N[C@@H](CCC(N)=O)C(=O)N[C@@H](CCCNC(=N)N)C(=O)N[C@@H](CC1CCCCC1)C(N)=O)[C@@H](C)O	0.5	3.3	–	–	–	–
CC[C@](C)(NC(=O)[C@H](CC(C)C)NC(=O)[C@H](CC(N)=O)NC(=O)[C@H](CC1CCCCC1)NC(=O)[C@H](CC1CCCCC1)NC(=O)[C@H](Cc1cnc[nH]1)NC(=O)[C@H](CCCNC(=N)N)NC(=O)[C@H]1CCCN1C(=O)[C@H](CO)NC(C)=O)C(=O)N[C@H](C(=O)N[C@@H](CCCNC(=N)N)C(=O)N[C@@H](CCC(N)=O)C(=O)N[C@@H](CCCNC(=N)N)C(=O)N[C@@H](CC1CCCCC1)C(N)=O)[C@@H](C)O	0.41	3.7	–	–	–	–
CC(C)C[C@H](NC(=O)[C@H](CC(N)=O)NC(=O)[C@H](CC1CCCCC1)NC(=O)[C@H](CC1CCCCC1)NC(=O)[C@H](Cc1cnc[nH]1)NC(=O)[C@H](CCCNC(=N)N)NC(=O)[C@H]1CCCN1C(=O)[C@H](CO)NC(=O)CO)C(=O)NC(C)(C)C(=O)N[C@H](C(=O)N[C@@H](CCCNC(=N)N)C(=O)N[C@@H](CCC(N)=O)C(=O)N[C@@H](CCCNC(=N)N)C(=O)N[C@@H](CC1CCCCC1)C(N)=O)[C@@H](C)O	0.59	1.2	–	–	–	–
CC[C@](C)(NC(=O)[C@H]1CCCN1C(=O)[C@H](CO)NC(C)=O)C(=O)N[C@@H](Cc1ccncc1)C(=O)N[C@@H](CC1CCCCC1)C(=O)N[C@@H](CC(C)(C)C)C(=O)N[C@@H](CC(N)=O)C(=O)N[C@@H](CCCCN)C(=O)NC(C)(C)C(=O)N[C@H](C(=O)N[C@@H](CCCNC(=N)N)C(=O)N[C@@H](CCC(N)=O)C(=O)N[C@@H](CCCNC(=N)N)C(=O)N[C@@H](CC1CCCCC1)C(N)=O)[C@@H](C)O	0.2	0.4	52	–	12	1
CC[C@](C)(NC(=O)[C@H](CC1CCCCC1)NC(=O)[C@H](Cc1cnc[nH]1)NC(=O)[C@H](CCCNC(=N)N)NC(=O)[C@H]1CCCN1C(=O)[C@H](CO)NC(C)=O)C(=O)N[C@@H](CC(N)=O)C(=O)N[C@@H](CC(C)C)C(=O)NC(C)(C)C(=O)N[C@H](C(=O)N[C@@H](CCCNC(=N)N)C(=O)N[C@@H](CCC(N)=O)C(=O)N[C@@H](CCCNC(=N)N)C(=O)N[C@@H](CC1CCCCC1)C(N)=O)[C@@H](C)O	0.18	0.45	–	–	–	–
